Measurements as given in paper PMC6829278, “Suitability of GnRH Receptors for Targeted Photodynamic Therapy in Head and Neck Cancers” (International Journal of Molecular Sciences, 2019).
Read-outs that look alike come from different tables or passages of the source. Square brackets hold non-standard residues; d marks the D form. Peptide text beside a SMILES is read from it. * marks the point of attachment. X1 = C=CC1=C(C)c2cc3[nH]c(cc4nc(cc5[nH]c(cc1n2)c(C)c5CCC(=O)O)C(CCC(=O)*)=C4C)c(C)c3C=C; pGlu = O=C1CC[C@@H](C(=O)O)N1; Butyryl = CCCC(=O)*

Experiments:
[1] = test system: Detroit-562 human pharyngeal carcinoma cells; test: cells; details: for Effect of incubation time on cell viability inhibition: incubation 1, 3 or 5 h
Experimental: (compound 5) was used for the optimization of the conditions of the cell viability inhibition assays. First, the irradiation time was optimized. Detroit-562 pharyngeal cells were treated with the peptide-PpIX conjugate for 5 h, the unbound conjugate was washed out, and then the cells were irradiated for 0, 2, 10, or 30 min followed by 72 h of further incubation (Figure 6A).
Afterwards, the incubation time was optimized.
The cell viability inhibition of the synthesized GnRH-PpIX conjugates was measured on Detroit-562 cells using the previously optimized conditions (5 h treatment, 10 min irradiation).
Cells were seeded to 96-well plates (6·× 10^3 cells/well) 48 h prior to the treatment. The cells were treated with the peptides (10 μM) and conjugates (0.025–10 μM) in darkness. Stock solutions of the compounds were prepared in DMSO (5 mM) and all dilutions were made to contain 0.2% DMSO final concentration. The control wells were treated with medium or 0.2% DMSO containing medium. After 1, 3, or 5 h, the cells were washed once with medium, irradiated for 0, 2, 10, or 30 min and incubated for a further 72 h. The irradiation was performed by an Oriel type 250 W Quartz Tungsten Halogen lamp (Newport Corporation, CA, USA) with a 550 nm emission maximum. The light was filtered to exclude UV and IR components. The fluence rate was determined by a 10 A-P Nova laser power/energy monitor (Ophir, Optronix, Jerusalem, Israel) using the pyro-electric detector. Then, the MTT-test was performed according to the manufacturer’s instructions. Each point was measured using 3 parallels and each experiment was repeated twice.

[2] = target: T1, GnRH-R (membranes of human pituitary) (Homo sapiens, UniProt P30968); test: Radioligand binding (ligand competition) assay, displacement of [125I]-[6D-Trp]-GnRH-I, human pituitary membranes; details: for Inhibition of the binding of [125I]-[6D-Trp]-GnRH-I: at a concentration of 10^-6 M, tissue (human pituitary / human prostate cancer) not specified
T1 construct: Tissue samples derived by autopsy from normal human pituitary (anterior lobe); from tissue; host or cells: normal human pituitary (anterior lobe), autopsy; membrane homogenates
T1 sequence (P30968 1-328): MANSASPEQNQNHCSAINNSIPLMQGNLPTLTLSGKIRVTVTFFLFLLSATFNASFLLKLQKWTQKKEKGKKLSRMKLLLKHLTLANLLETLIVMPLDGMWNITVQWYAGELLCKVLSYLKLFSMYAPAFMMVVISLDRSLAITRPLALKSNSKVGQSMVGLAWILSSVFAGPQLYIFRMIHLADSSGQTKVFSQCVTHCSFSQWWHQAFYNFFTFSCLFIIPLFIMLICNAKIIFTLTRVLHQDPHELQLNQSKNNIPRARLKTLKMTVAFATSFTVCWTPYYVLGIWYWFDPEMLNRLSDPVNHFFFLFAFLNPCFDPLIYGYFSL
Description: (§1) The binding potency of the GnRH analogs and the GnRH-PpIX conjugates to human pituitary and human prostate cancer cells, that express GnRH-R in high concentration, was investigated by ligand competition assay.
(§2) Tissue samples derived by autopsy from normal human pituitary (anterior lobe) and human prostate cancer cells were obtained from a patient at the time of initial surgical treatment. The collection and the use of these specimens for our studies are approved by the local Institutional Ethics Committee. […] The assay was performed as described earlier. […] At the end of the incubation, 125 µL aliquots of suspension were transferred onto the top of 1 mL of ice-cold binding buffer containing 1.5% BSA in microcentrifuge tubes. The tubes were centrifuged at 12,000× g for 3 min at 4 °C. Supernatants were aspirated and the pellet was counted in a gamma counter. Protein concentration was determined by the method of Bradford, using a Bio-Rad protein assay kit (Bio-Rad Laboratories, Hercules, CA, USA). The LIGAND-PC computerized curve-fitting program of Munson and Rodbard was used to determine the receptor binding characteristics and IC50 values.

[3] = target: T2, GnRH-R (membranes of human prostate cancer cells) (Homo sapiens, UniProt P30968); test: Radioligand binding (ligand competition) assay, displacement of [125I]-[6D-Trp]-GnRH-I, human prostate cancer membranes
T2 construct: human prostate cancer cells were obtained from a patient at the time of initial surgical treatment; from tissue; host or cells: human prostate cancer specimen from a patient at surgery; membrane homogenates
T2 sequence (P30968 1-328): T1 sequence (P30968 1-328)
Description: as §1, §2

[4] = Detroit-562, 10 min irradiation
[5] = membranes of human pituitary, read-out: IC50 Values, inhibition of [125I]-[6D-Trp]-GnRH-I binding, Human Pituitary
[6] = membranes of human prostate cancer cells, read-out: IC50 Values, inhibition of [125I]-[6D-Trp]-GnRH-I binding, Human Prostate Cancer
[7] = Detroit-562, 0.1 µM, 5 h treatment, 10 min irradiation

Inhibition of the binding of [125I]-[6D-Trp]-GnRH-I [2] | IC50 [2, 5] [nM] | IC50 [3, 6] [nM] | Compound | further results
– | 9.7 ± 1.07 | 8.61 ± 1.08 | CCCC(=O)NCCCC[C@H](NC(=O)[C@H](Cc1c[nH]c2ccccc12)NC(=O)[C@H](Cc1c[nH]cn1)NC(=O)[C@@H]1CCC(=O)N1)C(=O)N[C@@H](Cc1ccc(O)cc1)C(=O)N[C@H](CCCCN)C(=O)N[C@@H](CC(C)C)C(=O)N[C@@H](CCCNC(=N)N)C(=O)N1CCC[C@H]1C(=O)NCC(N)=O [compound 2, GnRH-I[^4Lys(Bu), ^6D-Lys]] ([pGlu]HWK(Butyryl)Y[dK]LRPG-NH2) | –
– | 5.56 ± 1.07 | 4.65 ± 0.31 | CCCC(=O)NCCCC[C@H](NC(=O)[C@H](Cc1c[nH]c2ccccc12)NC(=O)[C@H](Cc1c[nH]cn1)NC(=O)[C@@H]1CCC(=O)N1)C(=O)N[C@@H](Cc1c[nH]cn1)C(=O)N[C@H](CCCCN)C(=O)N[C@@H](Cc1c[nH]c2ccccc12)C(=O)N[C@@H](Cc1ccc(O)cc1)C(=O)N1CCC[C@H]1C(=O)NCC(N)=O [compound 3, GnRH-II[^4Lys(Bu), ^6D-Lys]] ([pGlu]HWK(Butyryl)H[dK]WYPG-NH2) | –
– | 7.27 ± 0.92 | 6.56 ± 1.11 | CCCC(=O)NCCCC[C@H](NC(=O)[C@H](Cc1c[nH]c2ccccc12)NC(=O)[C@H](Cc1c[nH]cn1)NC(=O)[C@@H]1CCC(=O)N1)C(=O)N[C@@H](Cc1c[nH]cn1)C(=O)N[C@@H](CC(=O)OC)C(=O)N[C@@H](Cc1c[nH]c2ccccc12)C(=O)N[C@@H](CCCCN)C(=O)N1CCC[C@H]1C(=O)NCC(N)=O [compound 4, GnRH-III[^4Lys(Bu), ^6Asp(OMe)]] | –
– | 36.3 ± 3.17 | 42.7 ± 7.04 | C=CC1=C(C)c2cc3[nH]c(cc4nc(cc5[nH]c(cc1n2)c(C)c5CCC(=O)O)C(CCC(=O)NCCCC[C@@H](NC(=O)[C@H](Cc1ccc(O)cc1)NC(=O)[C@H](CO)NC(=O)[C@H](Cc1c[nH]c2ccccc12)NC(=O)[C@H](Cc1c[nH]cn1)NC(=O)[C@@H]1CCC(=O)N1)C(=O)N[C@@H](CC(C)C)C(=O)N[C@@H](CCCNC(=N)N)C(=O)N1CCC[C@H]1C(=O)NCC(N)=O)=C4C)c(C)c3C=C [compound 5, GnRH-I[^6D-Lys(PpIX)]] | IC50 ([1]; 5 h): 62.3 ± 5.9 nM; Cell viability inhibition [1, 7]: > 90%; Cell viability inhibition (irradiation time optimization) [1, 7]: ~ 98%; Cell viability inhibition (irradiation time optimization) ([1]; Detroit-562, 0.1 µM, 5 h treatment, 30 min irradiation): ~ 98%; Toxicity in the absence of light ([1]; Detroit-562, 5 h treatment, 0 min irradiation, 72 h further incubation): non-toxic; Cell viability inhibition ([1]; Detroit-562, 5 h treatment, 2 min irradiation, sub-micromolar concentration): 50%; Effect of incubation time on cell viability inhibition [1, 4]: higher activity
– | 42.3 ± 4.27 | 41.8 ± 5.74 | C=CC1=C(C)c2cc3[nH]c(cc4nc(cc5[nH]c(cc1n2)c(C)c5CCC(=O)O)C(CCC(=O)NCCCC[C@@H](NC(=O)[C@H](Cc1ccc(O)cc1)NC(=O)[C@H](CCCCNC(=O)CCC)NC(=O)[C@H](Cc1c[nH]c2ccccc12)NC(=O)[C@H](Cc1c[nH]cn1)NC(=O)[C@@H]1CCC(=O)N1)C(=O)N[C@@H](CC(C)C)C(=O)N[C@@H](CCCNC(=N)N)C(=O)N1CCC[C@H]1C(=O)NCC(N)=O)=C4C)c(C)c3C=C [compound 6, GnRH-I[^4Lys(Bu), ^6D-Lys(PpIX)]] ([pGlu]HWK(Butyryl)Y[dK](X1)LRPG-NH2) | IC50 ([1]; 5 h): 89.8 ± 19.4 nM; Cell viability inhibition [1, 7]: 65–70%
– | 79.4 ± 8.88 | 84.5 ± 10.3 | C=CC1=C(C)c2cc3[nH]c(cc4nc(cc5[nH]c(cc1n2)c(C)c5CCC(=O)O)C(CCC(=O)NCCCC[C@@H](NC(=O)[C@H](Cc1c[nH]cn1)NC(=O)[C@H](CCCCNC(=O)CCC)NC(=O)[C@H](Cc1c[nH]c2ccccc12)NC(=O)[C@H](Cc1c[nH]cn1)NC(=O)[C@@H]1CCC(=O)N1)C(=O)N[C@@H](Cc1c[nH]c2ccccc12)C(=O)N[C@@H](Cc1ccc(O)cc1)C(=O)N1CCC[C@H]1C(=O)NCC(N)=O)=C4C)c(C)c3C=C [compound 7, GnRH-II[^4Lys(Bu), ^6D-Lys(PpIX)]] ([pGlu]HWK(Butyryl)H[dK](X1)WYPG-NH2) | IC50 ([1]; 5 h): 71.1 ± 6.2 nM; Cell viability inhibition [1, 7]: > 90%
– | – | – | C=CC1=C(C)c2cc3[nH]c(cc4nc(cc5[nH]c(cc1n2)c(C)c5CCC(=O)O)C(CCC(=O)NCCCC[C@H](NC(=O)[C@H](Cc1c[nH]c2ccccc12)NC(=O)[C@H](CC(=O)OC)NC(=O)[C@H](Cc1c[nH]cn1)NC(=O)[C@H](CCCCNC(=O)CCC)NC(=O)[C@H](Cc1c[nH]c2ccccc12)NC(=O)[C@H](Cc1c[nH]cn1)NC(=O)[C@@H]1CCC(=O)N1)C(=O)N1CCC[C@H]1C(=O)NCC(N)=O)=C4C)c(C)c3C=C [compound 8, GnRH-III[^4Lys(Bu), ^6Asp(OMe), ^8Lys(PpIX)]] | Cell viability inhibition [1, 7]: 65–70%; IC50 ([1]; read-out: Calculated IC50 values, cell viability inhibition, Detroit-562 cells, 5 h incubation, 10 min irradiation, further 72 h, MTT): 81.8 ± 12.6 nM; IC50 [2]: 289 ± 17.3 nM; IC50 [3]: 341 ± 21.1 nM
did not inhibit | – | – | EGF: peptide used as binding specificity control [reference compound] | –
did not inhibit | – | – | IGF-I: peptide used as binding specificity control [reference compound] | –
did not inhibit | – | – | VIP: peptide used as binding specificity control [reference compound] | –
did not inhibit | – | – | glucagon: peptide used as binding specificity control [reference compound] | –
did not inhibit | – | – | hGHRH: peptide used as binding specificity control [reference compound] | –

Compound | Inhibition of the binding of [125I]-[6D-Trp]-GnRH-I [2] | IC50 [2, 5] [nM] | IC50 [3, 6] [nM] | further results
C=CC1=C(C)c2cc3[nH]c(cc4nc(cc5[nH]c(cc1n2)c(C)c5CCC(=O)O)C(CCC(=O)O)=C4C)c(C)c3C=C [PpIX, Protoporphyrin IX, reference compound] | did not inhibit | – | – | Cell viability inhibition ([1]; Detroit-562, 0.25 µM, 5 h treatment, 10 min irradiation): ~ 50%; Effect of incubation time on cell viability inhibition [1, 4]: no significant difference; IC50 ([1]; Homo sapiens, Detroit 562, light or radiation study, read-out: Calculated IC50 values, cell viability inhibition): 209 ± 120 nM
somatostatin-14: peptide structurally and/or functionally unrelated to GnRH, binding specificity control [reference compound] | did not inhibit | – | – | –
